Laboratory results as given in US7855205B2, “Pyrimidinyl substituted fused-pyrrolyl compounds useful in treating kinase disorders” (Janssen Pharmaceutica NV, priority 2004, dated 2010).

Assays:
A375 malignant melanoma = experiment: Inhibition of cell proliferation (14C-thymidine incorporation), A375; type: cell-based, human; conditions: Homo sapiens, A-375
Outline: (§1)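 Cells (3000-8000/well) grown 24 h at 37° C, 5% CO2, then given compound in DMSO for 24 h before adding methyl 14C-thymidine (0.2 uCi/well) for a further 24 h with drug. After PBS washes, incorporation into DNA counted by scintillation.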

RET = biological target: T1, RET (Homo sapiens, UniProt P07949); experiment: RET Kinase Screening Assay; type: biochemical; conditions: 33P-γ-ATP incorporation, 10 μM ATP
T1 construct: the RET cytoplasmic domain consisting of the last 492 amino acids of the intracellular domain of the RET tyrosine kinase; histidine tag (N); made in house; host or cells: Hi5 insect cells
T1 sequence (P07949 658-1114 limits assumed): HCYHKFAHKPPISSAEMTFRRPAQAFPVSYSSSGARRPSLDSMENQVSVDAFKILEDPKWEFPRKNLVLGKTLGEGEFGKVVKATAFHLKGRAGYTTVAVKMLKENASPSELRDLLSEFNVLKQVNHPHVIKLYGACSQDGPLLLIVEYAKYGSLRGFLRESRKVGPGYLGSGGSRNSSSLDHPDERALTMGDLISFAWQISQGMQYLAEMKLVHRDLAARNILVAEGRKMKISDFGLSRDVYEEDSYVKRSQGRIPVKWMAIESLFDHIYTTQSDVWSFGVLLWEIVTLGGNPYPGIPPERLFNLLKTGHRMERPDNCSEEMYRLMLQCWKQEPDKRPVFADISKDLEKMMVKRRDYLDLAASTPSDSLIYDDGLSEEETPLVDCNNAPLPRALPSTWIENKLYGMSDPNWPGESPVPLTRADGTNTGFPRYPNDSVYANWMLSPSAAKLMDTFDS

HCT-116 colon carcinoma = experiment: Inhibition of cell proliferation (14C-thymidine incorporation), HCT-116; type: cell-based; conditions: Homo sapiens, HCT-116, HCT116
Outline: as §1

VEGF-R2 = biological target: T2, VEGF-R2 (Rattus norvegicus, UniProt O08775); experiment: VEGF-R2 Screening Assay; type: biochemical; conditions: 33P-γ-ATP incorporation, 10 μM ATP
T2 construct: polyhistidine (N)
T2 sequence (O08775 786-1343): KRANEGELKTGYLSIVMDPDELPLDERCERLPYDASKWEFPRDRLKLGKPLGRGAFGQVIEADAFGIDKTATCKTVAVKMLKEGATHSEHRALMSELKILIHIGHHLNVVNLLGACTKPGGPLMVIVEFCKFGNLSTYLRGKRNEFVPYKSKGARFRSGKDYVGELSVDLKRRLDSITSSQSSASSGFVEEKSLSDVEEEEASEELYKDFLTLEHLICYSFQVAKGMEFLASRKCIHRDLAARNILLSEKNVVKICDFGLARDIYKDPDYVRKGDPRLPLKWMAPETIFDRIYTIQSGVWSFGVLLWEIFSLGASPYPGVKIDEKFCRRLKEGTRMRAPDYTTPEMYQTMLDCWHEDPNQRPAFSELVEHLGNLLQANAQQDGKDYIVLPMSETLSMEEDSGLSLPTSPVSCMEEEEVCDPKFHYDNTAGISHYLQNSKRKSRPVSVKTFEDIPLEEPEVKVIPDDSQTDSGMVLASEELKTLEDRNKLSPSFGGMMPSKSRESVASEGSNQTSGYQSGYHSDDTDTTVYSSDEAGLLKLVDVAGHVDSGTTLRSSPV
Outline: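 The N-terminally His-tagged rat VEGF-R2 kinase domain (aa 786-1343), diluted in 50 mM Tris-HCl pH 8.0 with 0.1% BSA, phosphorylated a biotinylated histone-H1 peptide with 33P-γ-ATP on Flashplates for 1 h at 30 °C in 1% DMSO. After washes with EDTA/PBS, immobilized 33P was counted by scintillation.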

Aurora-A = biological target: T3, Aurora-A (Mus musculus, UniProt P97477); experiment: Aurora-A Screening Assay; type: biochemical, murine; conditions: 33P-γ-ATP incorporation, 10 μM ATP
T3 construct: made in house; host or cells: sf9 insect cells
T3 sequence (P97477 1-395): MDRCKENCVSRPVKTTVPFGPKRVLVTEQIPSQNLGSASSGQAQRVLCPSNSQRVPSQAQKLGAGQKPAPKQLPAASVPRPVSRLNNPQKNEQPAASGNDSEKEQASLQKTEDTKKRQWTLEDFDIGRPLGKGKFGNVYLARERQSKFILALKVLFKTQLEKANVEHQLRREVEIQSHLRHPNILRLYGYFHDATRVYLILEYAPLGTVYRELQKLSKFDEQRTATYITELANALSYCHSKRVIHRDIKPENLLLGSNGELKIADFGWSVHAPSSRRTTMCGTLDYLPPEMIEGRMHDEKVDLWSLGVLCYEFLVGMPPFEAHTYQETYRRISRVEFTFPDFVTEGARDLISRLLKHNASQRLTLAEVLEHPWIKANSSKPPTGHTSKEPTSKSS

[1] = system: HeLa cervical adenocarcinoma; experiment: Inhibition of cell proliferation (14C-thymidine incorporation), HeLa; type: cell-based; conditions: Homo sapiens;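 also: HeLa cells in 96-well scintillating plates, compound for 24 h then 24 h more with 14C-thymidine, counting label built into new DNA against DMSO-only control wells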
CDK1:Cyclin-B = biological target: T4, CDK1:Cyclin-B (Homo sapiens, UniProt P06493); experiment: CDK1 Screening Assay; type: biochemical; conditions: 33P-γ-ATP incorporation, 10 μM ATP
T4 construct: purchased New England Biolabs, Beverly, Mass; 6020; host or cells: insect cells
T4 sequence (P06493 whole entry): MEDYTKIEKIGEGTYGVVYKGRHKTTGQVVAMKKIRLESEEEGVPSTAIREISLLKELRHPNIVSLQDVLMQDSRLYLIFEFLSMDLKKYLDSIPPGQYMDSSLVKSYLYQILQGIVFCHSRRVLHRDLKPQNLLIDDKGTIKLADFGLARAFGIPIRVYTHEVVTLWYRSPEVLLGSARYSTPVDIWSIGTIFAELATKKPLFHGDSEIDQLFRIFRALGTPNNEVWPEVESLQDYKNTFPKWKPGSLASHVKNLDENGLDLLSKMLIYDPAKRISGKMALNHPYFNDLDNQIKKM
T4 sequence (P14635 whole entry partner): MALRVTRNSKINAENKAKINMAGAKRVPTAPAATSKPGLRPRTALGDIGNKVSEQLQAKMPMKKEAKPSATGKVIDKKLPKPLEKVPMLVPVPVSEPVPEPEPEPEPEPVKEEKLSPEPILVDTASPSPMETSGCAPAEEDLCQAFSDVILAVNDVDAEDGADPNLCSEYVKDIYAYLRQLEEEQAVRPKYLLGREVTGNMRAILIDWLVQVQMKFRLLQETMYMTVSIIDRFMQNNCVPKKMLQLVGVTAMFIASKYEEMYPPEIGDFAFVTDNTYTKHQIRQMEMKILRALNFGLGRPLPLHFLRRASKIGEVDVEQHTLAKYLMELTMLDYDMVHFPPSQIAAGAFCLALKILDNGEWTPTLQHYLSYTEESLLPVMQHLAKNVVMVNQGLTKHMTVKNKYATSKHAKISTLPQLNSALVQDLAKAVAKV
Outline: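 Human CDK1/cyclin B co-expressed in insect cells (30 ng/well) in 50 mM Tris pH 8, 10 mM MgCl2, with 10 μM ATP, 33P-γ-ATP and 0.025 μM biotinylated histone H1 peptide (reaction-mix levels); 1% DMSO final. 1 h at 30° C. 33P incorporation into streptavidin-captured peptide by scintillation counting.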

Row | Compound | IC50 (A375 malignant melanoma) [µM] | IC50 (RET) [µM] | IC50 (HCT-116 colon carcinoma) [µM] | IC50 (VEGF-R2) [µM] | IC50 (Aurora-A) [µM] | IC50 [1] [µM] | IC50 (CDK1:Cyclin-B) [µM]
1 | COc1ccc(Nc2nccc(-c3c[nH]c4ncccc34)n2)cc1 [Cpd 5, (4-Methoxy-phenyl)-[4-(1H-pyrrolo[2,3-b]pyridin-3-yl)-pyrimidin-2-yl]-amine] | 0.05 | 1.14 | 0.034 | 0.238 | 0.134 | 0.059 | 0.011
2 | COc1cccc(Nc2nccc(-c3c[nH]c4ncccc34)n2)c1 [Cpd 6, (3-Methoxy-phenyl)-[4-(1H-pyrrolo[2,3-b]pyridin-3-yl)-pyrimidin-2-yl]-amine] | 0.95 | ~1 | 0.72 | 0.14 | 0.1 | 1.46 | 0.119
3 | COc1ccccc1Nc1nccc(-c2c[nH]c3ncccc23)n1 [Cpd 7, (2-Methoxy-phenyl)-[4-(1H-pyrrolo[2,3-b]pyridin-3-yl)-pyrimidin-2-yl]-amine] | 0.35 | > 10 | 0.29 | 0.82 | 0.497 | 0.35 | 0.044
4 | Cc1ccc(Nc2nccc(-c3c[nH]c4ncccc34)n2)cc1 [Cpd 10, [4-(1H-Pyrrolo[2,3-b]pyridin-3-yl)-pyrimidin-2-yl]-p-tolyl-amine] | 0.25 | ~10 | 0.23 | 0.2 | 0.29 | 0.22 | 0.04
5 | Clc1ccc(Nc2nccc(-c3c[nH]c4ncccc34)n2)cc1 [Cpd 11, (4-Chloro-phenyl)-[4-(1-H-pyrrolo[2,3-b]pyridin-3-yl)-pyrimidin-2-yl]-amine] | 0.97 | > 10 | 0.56 | ~1 | ~1 | 1.01 | 0.0696
6 | Clc1ccccc1Nc1nccc(-c2c[nH]c3ncccc23)n1 [Cpd 12, (2-Chloro-phenyl)-[4-(1H-pyrrolo[2,3-b]pyridin-3-yl)-pyrimidin-2-yl]-amine] | 0.1 | > 10 | 0.16 | 0.878 | 0.287 | 0.14 | 0.0092
7 | Cc1cccc(C)c1Nc1nccc(-c2c[nH]c3ncccc23)n1 [Cpd 35, (2,6-Dimethylphenyl)-[4-(1H-pyrrolo[2,3-b]pyridin-3-yl)-pyrimidin-2-yl]-amine] | 0.0369 | 1 | 0.0331 | 0.975 | 0.556 | 0.0903 | 0.017
8 | Nc1ccc(Nc2nccc(-c3c[nH]c4ncccc34)n2)cc1 [Cpd 37, (4-Aminophenyl)-[4-(1H-pyrrolo[2,3-b]pyridin-3-yl)-pyrimidin-2-yl]-amine] | 0.185 | 1.62 | 0.0828 | 0.211 | 0.386 | 0.194 | 0.035
9 | CN(C)c1ccc(Nc2nccc(-c3c[nH]c4ncccc34)n2)cc1 [Cpd 38, (4-Dimethylaminophenyl)-[4-(1H-pyrrolo[2,3-b]pyridin-3-yl)-pyrimidin-2-yl]-amine] | 0.0494 | 0.821 | 0.0216 | 0.081 | 0.112 | 0.0358 | 0.0096
10 | CCOc1ccc(Nc2nccc(-c3c[nH]c4ncccc34)n2)cc1 [Cpd 40, (4-Ethoxyphenyl)-[4-(1H-pyrrolo[2,3-b]pyridin-3-yl)-pyrimidin-2-yl]-amine] | 0.0565 | 1 | 0.0244 | 0.149 | 0.084 | 0.0662 | 0.01

The remaining lines, values ahead:

Row | IC50 (A375 malignant melanoma) [µM] | IC50 (RET) [µM] | IC50 (HCT-116 colon carcinoma) [µM] | IC50 (VEGF-R2) [µM] | IC50 (Aurora-A) [µM] | IC50 [1] [µM] | IC50 (CDK1:Cyclin-B) [µM] | Compound
11 | 0.00167 | 1.54 | 0.0022 | 0.583 | 0.317 | 0.00337 | 0.00095 | CNCCc1ccc(Nc2nccc(-c3c[nH]c4ncccc34)n2)c(C)c1 [Cpd 45]
12 | 0.00288 | 1.4 | 0.00292 | 0.882 | 0.972 | 0.00302 | 0.0014 | CCN(CC)CCc1ccc(Nc2nccc(-c3c[nH]c4ncccc34)n2)c(C)c1 [Cpd 47]
13 | 0.00255 | 3.52 | 0.00301 | 0.875 | 0.86 | 0.00255 | – | Cc1cc(CCN2CCCC2)ccc1Nc1nccc(-c2c[nH]c3ncccc23)n1 [Cpd 48]
14 | 0.00282 | 2.28 | 0.00294 | 0.75 | 0.333 | 0.00252 | 0.00196 | Cc1cc(CCN2CCOCC2)ccc1Nc1nccc(-c2c[nH]c3ncccc23)n1 [Cpd 49, {4-[2-(Morpholin-4-yl)ethyl]-2-methylphenyl}-[4-(1H-pyrrolo[2,3-b]pyridin-3-yl)-pyrimidin-2-yl]-amine]
15 | 0.00284 | 3.07 | 0.00283 | 0.959 | 0.902 | 0.00268 | 0.0011 | Cc1cc(CCN2CCCCC2)ccc1Nc1nccc(-c2c[nH]c3ncccc23)n1 [Cpd 50, {4-[2-(Piperidin-1-yl)ethyl]-2-methylphenyl}-[4-(1H-pyrrolo[2,3-b]pyridin-3-yl)-pyrimidin-2-yl]-amine]
16 | 0.134 | 0.54 | 0.121 | 0.322 | 0.0757 | 0.162 | 0.0087 | OCCc1ccc(Nc2nccc(-c3c[nH]c4ncccc34)n2)c(Cl)c1 [Cpd 52]
17 | 0.0913 | 2.36 | 0.127 | 1.31 | 0.408 | 0.123 | 0.0441 | CNCCc1ccc(Nc2nccc(-c3c[nH]c4ncccc34)n2)c(Cl)c1 [Cpd 53]
18 | 0.215 | 4.06 | 0.269 | 2.31 | 0.908 | 0.281 | 0.0612 | CN(C)CCc1ccc(Nc2nccc(-c3c[nH]c4ncccc34)n2)c(Cl)c1 [Cpd 54]
19 | 0.233 | 1.15 | 0.264 | 0.342 | 0.785 | 0.292 | 0.0408 | CN1CCN(CCc2ccc(Nc3nccc(-c4c[nH]c5ncccc45)n3)c(Cl)c2)CC1 [Cpd 55, {2-Chloro-4-[2-(4-methylpiperizin-1-yl)ethyl]phenyl}-[4-(1H-pyrrolo[2,3-b]pyridin-3-yl)-pyrimidin-2-yl]-amine]
20 | 0.00616 | – | 0.00762 | 3.57 | 0.374 | 0.00598 | 0.0028 | OCC[C@H]1CC[C@H](Nc2nccc(-c3c[nH]c4ncccc34)n2)CC1 [Cpd 77, trans-2-{4-[4-(1H-pyrrolo[2,3-b]pyridin-3-yl]-pyrimidin-2-ylamino]-cyclohexyl}-ethanol]
21 | 0.00225 | – | 0.00313 | 6.71 | 1.01 | 0.00374 | 0.00426 | CNCC[C@H]1CC[C@H](Nc2nccc(-c3c[nH]c4ncccc34)n2)CC1 [Cpd 78, trans-[4-(2-Methylaminoethyl)-cyclohexyl]-[4-(1H-pyrrolo[2,3-b]pyridin-3-yl)-pyrimidin-2-yl]-amine]
